From ChEMBL document CHEMBL1201862, “PubChem BioAssay data set” (2004)
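All cell lines were grown in 96-well plates and treated with compound for 48 hours. GI50 is the concentration that inhibits growth by half.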 Activity calls are given as the source filed them. No stated cut-off is given here; in the data, active = GI50 up to about 1.1 µM and inactive = higher.

What was measured:
Experiment in all cases: NCI-60 cell line screen, 48 h
SNB-75 = system: SNB-75
KM-20L2 = system: KM-20L2
RPMI-8226 = system: RPMI-8226
UACC-62 = system: UACC-62
SF-539 = system: SF-539
DMS-273 = system: DMS-273
NCI-H23 = system: NCI-H23
SNB-19 = system: SNB-19
A549 = system: A549
UO-31 = system: UO-31
COLO 205 = system: COLO 205
DMS-114 = system: DMS-114
SK-MEL-5 = system: SK-MEL-5
MCF7 = system: MCF7
LOX IMVI = system: LOX IMVI
OVCAR-3 = system: OVCAR-3
OVCAR-5 = system: OVCAR-5
HCT-15 = system: HCT-15
HCC 2998 = system: HCC 2998
XF498 = system: XF498
SW-620 = system: SW-620
A498 = system: A498
NCI-H226 = system: NCI-H226
SF-295 = system: SF-295
NCI/ADR-RES = system: NCI/ADR-RES
CCRF-CEM = system: CCRF-CEM
MOLT-4 = system: MOLT-4
NCI-H522 = system: NCI-H522
HL-60 = system: HL-60
Malme-3M = system: Malme-3M
IGROV-1 = system: IGROV-1
RXF 393 = system: RXF 393
HOP-92 = system: HOP-92
OVCAR-8 = system: OVCAR-8
SK-MEL-28 = system: SK-MEL-28
HOP-18 = system: HOP-18
K562 = system: K562
CAKI-1 = system: CAKI-1
KM12 = system: KM12
U-251 = system: U-251
SK-MEL-2 = system: SK-MEL-2
SNB-78 = system: SNB-78
HOP-62 = system: HOP-62
SK-OV-3 = system: SK-OV-3
HT-29 = system: HT-29
EKVX = system: EKVX
OVCAR-4 = system: OVCAR-4
DLD-1 = system: DLD-1
HCT-116 = system: HCT-116
NCI-H460 = system: NCI-H460
SN12C = system: SN12C
UACC-257 = system: UACC-257
SF-268 = system: SF-268
M14 = system: M14
ACHN = system: ACHN
M19-MEL = system: M19-MEL
LXFL 529 = system: LXFL 529
TK-10 = system: TK-10
786-0 = system: 786-0

With `C=CCc1cccc(/C=N\N/C(N)=N/O)c1O` the GI50 (SNB-75) was 4430 nM (inactive), the GI50 (KM-20L2) was 3980 nM (inactive) and the GI50 (RPMI-8226) was 2220 nM (inactive). For the same compound, the GI50 (UACC-62) was 2640 nM (inactive), the GI50 (SF-539) was 2640 nM (inactive) and the GI50 (DMS-273) was 3050 nM (inactive). The GI50 (NCI-H23) was 3220 nM (inactive), the GI50 (SNB-19) was 11500 nM (inactive) and the GI50 (A549) was 3610 nM (inactive). For the same compound, the GI50 (UO-31) was 1450 nM (inactive), the GI50 (COLO 205) was 5010 nM (inactive) and the GI50 (DMS-114) was 2280 nM (inactive). For the same compound, the GI50 (SK-MEL-5) was 3760 nM (inactive), the GI50 (MCF7) was 2560 nM (inactive) and the GI50 (LOX IMVI) was 3290 nM (inactive). The GI50 (OVCAR-3) was 2260 nM (inactive), the GI50 (OVCAR-5) was 5020 nM (inactive) and the GI50 (HCT-15) was 2190 nM. The GI50 (HCC 2998) was 3210 nM (inactive), the GI50 (XF498) was 4270 nM (inactive) and the GI50 (SW-620) was 6520 nM (inactive). For the same compound, the GI50 (A498) was 7760 nM (inactive), the GI50 (NCI-H226) was 3180 nM (inactive) and the GI50 (SF-295) was 2310 nM (inactive). For the same compound, the GI50 (NCI/ADR-RES) was 2230 nM (inactive), the GI50 (CCRF-CEM) was 2070 nM (inactive) and the GI50 (MOLT-4) was 3100 nM (inactive). The GI50 (NCI-H522) was 3230 nM (inactive), the GI50 (HL-60) was 2140 nM (inactive) and the GI50 (Malme-3M) was 9200 nM (inactive). For the same compound, the GI50 (IGROV-1) was 4590 nM (inactive), the GI50 (RXF 393) was 2990 nM (inactive) and the GI50 (HOP-92) was 6560 nM (inactive). For the same compound, the GI50 (OVCAR-8) was 3890 nM (inactive), the GI50 (SK-MEL-28) was 11900 nM (inactive) and the GI50 (HOP-18) was 5090 nM (inactive). For the same compound, the GI50 (K562) was 3300 nM (inactive), the GI50 (CAKI-1) was 3460 nM (inactive) and the GI50 (KM12) was 4360 nM (inactive). For the same compound, the GI50 (U-251) was 4510 nM (inactive), the GI50 (SK-MEL-2) was 6300 nM (inactive) and the GI50 (SNB-78) was 21500 nM (inactive). The GI50 (HOP-62) was 2280 nM (inactive), the GI50 (SK-OV-3) was 4840 nM (inactive) and the GI50 (HT-29) was 6590 nM (inactive). For the same compound, the GI50 (EKVX) was 3060 nM (inactive), the GI50 (OVCAR-4) was 5160 nM (inactive) and the GI50 (DLD-1) was 4840 nM (inactive). For the same compound, the GI50 (HCT-116) was 5330 nM (inactive), the GI50 (NCI-H460) was 3200 nM (inactive) and the GI50 (SN12C) was 4800 nM (inactive). The GI50 (UACC-257) was 4620 nM (inactive) and the GI50 (SF-268) was 3030 nM (inactive).
With `CC(C)(CN1CCCCC1)C(=O)CC(SCCS(=O)(=O)O)c1ccc(Br)cc1` (centres undefined) the GI50 (SNB-75) was 2070 nM (inactive), the GI50 (KM-20L2) was 1580 nM (inactive) and the GI50 (RPMI-8226) was 1940 nM (inactive). The GI50 (M14) was 1590 nM (inactive), the GI50 (UACC-62) was 1840 nM (inactive) and the GI50 (SF-539) was 1600 nM (inactive). For the same compound, the GI50 (DMS-273) was 1650 nM (inactive), the GI50 (NCI-H23) was 2340 nM (inactive) and the GI50 (SNB-19) was 2340 nM (inactive). The GI50 (A549) was 1980 nM (inactive), the GI50 (UO-31) was 1470 nM (inactive) and the GI50 (COLO 205) was 1450 nM (inactive). The GI50 (DMS-114) was 1750 nM (inactive), the GI50 (SK-MEL-5) was 1800 nM (inactive) and the GI50 (OVCAR-5) was 2800 nM (inactive). For the same compound, the GI50 (HCT-15) was 2820 nM, the GI50 (HCC 2998) was 2700 nM (inactive) and the GI50 (XF498) was 562 nM (active). The GI50 (A498) was 2100 nM (inactive), the GI50 (NCI-H226) was 3260 nM (inactive) and the GI50 (ACHN) was 1670 nM (inactive). The GI50 (SF-295) was 5120 nM (inactive), the GI50 (MOLT-4) was 2230 nM (inactive) and the GI50 (NCI-H522) was 1150 nM (inactive). For the same compound, the GI50 (Malme-3M) was 1390 nM (inactive), the GI50 (IGROV-1) was 1970 nM (inactive) and the GI50 (RXF 393) was 1410 nM (inactive). The GI50 (HOP-92) was 578 nM (active), the GI50 (OVCAR-8) was 2380 nM (inactive) and the GI50 (SK-MEL-28) was 3270 nM (inactive). The GI50 (HOP-18) was 832 nM (active), the GI50 (K562) was 1210 nM (inactive) and the GI50 (CAKI-1) was 2400 nM (inactive). For the same compound, the GI50 (M19-MEL) was 1660 nM (inactive), the GI50 (KM12) was 2000 nM (inactive) and the GI50 (U-251) was 1560 nM (inactive). The GI50 (SK-MEL-2) was 2320 nM (inactive), the GI50 (SNB-78) was 4460 nM (inactive) and the GI50 (HOP-62) was 6180 nM (inactive). The GI50 (SK-OV-3) was 2930 nM (inactive), the GI50 (HT-29) was 1750 nM (inactive) and the GI50 (EKVX) was 2920 nM (inactive). The GI50 (OVCAR-4) was 2030 nM (inactive), the GI50 (DLD-1) was 1670 nM (inactive) and the GI50 (HCT-116) was 1670 nM (inactive). For the same compound, the GI50 (NCI-H460) was 2140 nM (inactive), the GI50 (LXFL 529) was 1240 nM (inactive) and the GI50 (SN12C) was 1340 nM (inactive). For the same compound, the GI50 (TK-10) was 2560 nM (inactive), the GI50 (786-0) was 1260 nM (inactive) and the GI50 (UACC-257) was 3170 nM (inactive). The GI50 (SF-268) was 2610 nM (inactive).
For `CN(C)CCNC(=O)c1cc(Cl)cc2ccc(-c3ccccc3)nc12`, the GI50 (SNB-75) was 1860 nM (inactive), the GI50 (KM-20L2) was 2650 nM (inactive) and the GI50 (RPMI-8226) was 1850 nM (inactive). For the same compound, the GI50 (UACC-62) was 2450 nM (inactive), the GI50 (SF-539) was 3090 nM (inactive) and the GI50 (DMS-273) was 2300 nM (inactive). The GI50 (NCI-H23) was 3960 nM (inactive), the GI50 (SNB-19) was 5040 nM (inactive) and the GI50 (A549) was 2870 nM (inactive). The GI50 (UO-31) was 1910 nM (inactive), the GI50 (COLO 205) was 1600 nM (inactive) and the GI50 (DMS-114) was 3460 nM (inactive). The GI50 (SK-MEL-5) was 1870 nM (inactive), the GI50 (MCF7) was 1820 nM (inactive) and the GI50 (LOX IMVI) was 2320 nM (inactive). For the same compound, the GI50 (OVCAR-3) was 3740 nM (inactive), the GI50 (OVCAR-5) was 4840 nM (inactive) and the GI50 (HCT-15) was 2850 nM. For the same compound, the GI50 (HCC 2998) was 3540 nM (inactive), the GI50 (XF498) was 2180 nM (inactive) and the GI50 (SW-620) was 2320 nM (inactive). The GI50 (A498) was 5480 nM (inactive), the GI50 (NCI-H226) was 2490 nM (inactive) and the GI50 (SF-295) was 3860 nM (inactive). The GI50 (NCI/ADR-RES) was 2510 nM (inactive), the GI50 (CCRF-CEM) was 1490 nM (inactive) and the GI50 (MOLT-4) was 447 nM (active). The GI50 (NCI-H522) was 5370 nM (inactive), the GI50 (HL-60) was 2050 nM (inactive) and the GI50 (Malme-3M) was 3630 nM (inactive). For the same compound, the GI50 (IGROV-1) was 3180 nM (inactive), the GI50 (RXF 393) was 3860 nM (inactive) and the GI50 (HOP-92) was 2820 nM (inactive). For the same compound, the GI50 (OVCAR-8) was 2920 nM (inactive), the GI50 (SK-MEL-28) was 4830 nM (inactive) and the GI50 (HOP-18) was 3520 nM (inactive). The GI50 (K562) was 1780 nM (inactive), the GI50 (CAKI-1) was 2040 nM (inactive) and the GI50 (M19-MEL) was 3150 nM (inactive). The GI50 (KM12) was 4840 nM (inactive), the GI50 (U-251) was 4320 nM (inactive) and the GI50 (SK-MEL-2) was 4850 nM (inactive). The GI50 (SNB-78) was 8130 nM (inactive), the GI50 (HOP-62) was 3130 nM (inactive) and the GI50 (SK-OV-3) was 3130 nM (inactive). For the same compound, the GI50 (HT-29) was 2220 nM (inactive), the GI50 (EKVX) was 5120 nM (inactive) and the GI50 (OVCAR-4) was 3920 nM (inactive). The GI50 (DLD-1) was 3300 nM (inactive), the GI50 (HCT-116) was 2180 nM (inactive) and the GI50 (NCI-H460) was 2000 nM (inactive). For the same compound, the GI50 (SN12C) was 3020 nM (inactive), the GI50 (UACC-257) was 2920 nM (inactive) and the GI50 (SF-268) was 4570 nM (inactive).
